Data published in PMC5218480 (PLoS ONE, 2017).

Tested on: MV-4-11 cells
Test: Gene expression microarray analysis (Affymetrix PrimeView) and GSEA
Format: cell-based, human
Design: RFU PODN (11730768_x_at) / Fold change /veh PODN (11730768_x_at) / RFU LINC00158 (11744669_a_at) / Fold change /veh LINC00158 (11744669_a_at) / RFU DUSP10 (11751237_a_at) / Fold change /veh DUSP10 (11751237_a_at) / RFU ID3 (11757404_x_at) / Fold change /veh ID3 (11757404_x_at) / RFU PLEKHG5 (11737974_s_at) / Fold change /veh PLEKHG5 (11737974_s_at) / RFU LRRC4B (11730491_at) / Fold change /veh LRRC4B (11730491_at) / RFU GIMAP4 (11747438_a_at) / Fold change /veh GIMAP4 (11747438_a_at) / RFU KRT8 (11758183_x_at) / Fold change /veh KRT8 (11758183_x_at) / RFU CNN1 (11734310_a_at) / Fold change /veh CNN1 (11734310_a_at) / RFU VPS37D (11726825_at) / Fold change /veh VPS37D (11726825_at) / RFU C10orf10 (11716522_x_at) / Fold change /veh C10orf10 (11716522_x_at) / RFU KIR2DL2 /// KIR2DL4 /// KIR2DL5A /// KIR2DL5B /// KIR2DS1 /// KIR2DS2 /// KIR2DS3 /// KIR2DS4 /// KIR3DL3 /// KIR3DL3 /// KIR3DS1 (11738374_at) / Fold change /veh KIR2DL2 /// KIR2DL4 /// KIR2DL5A /// KIR2DL5B /// KIR2DS1 /// KIR2DS2 /// KIR2DS3 /// KIR2DS4 /// KIR3DL3 /// KIR3DL3 /// KIR3DS1 (11738374_at) / RFU C1QL1 (11718748_at) / Fold change /veh C1QL1 (11718748_at) / RFU TMPRSS4 (11747572_a_at) / Fold change /veh TMPRSS4 (11747572_a_at) / RFU HAMP (11756126_x_at) / Fold change /veh HAMP (11756126_x_at) / RFU RNFT2 (11725882_a_at) / Fold change /veh RNFT2 (11725882_a_at) / RFU NR4A2 (11747474_a_at) / Fold change /veh NR4A2 (11747474_a_at) / RFU ABCC12 (11746883_a_at) / Fold change /veh ABCC12 (11746883_a_at) / RFU TMEM136 (11760407_x_at) / Fold change /veh TMEM136 (11760407_x_at) / RFU CLDN22 /// WWC2 (11732394_at) / Fold change /veh CLDN22 /// WWC2 (11732394_at) / RFU HLA-DPB1 (11760878_x_at) / Fold change /veh HLA-DPB1 (11760878_x_at) / RFU SPINT1 (11716480_a_at) / Fold change /veh SPINT1 (11716480_a_at) / RFU GAP43 (11754022_s_at) / Fold change /veh GAP43 (11754022_s_at) / RFU A4GNT (11735810_at) / Fold change /veh A4GNT (11735810_at) / RFU PRB3 (11715151_x_at) / Fold change /veh PRB3 (11715151_x_at) / RFU TUBB4B (11761932_at) / Fold change /veh TUBB4B (11761932_at) / RFU CAPN14 (11732068_a_at) / Fold change /veh CAPN14 (11732068_a_at) / RFU TMCC2 (11721928_a_at) / Fold change /veh TMCC2 (11721928_a_at) / RFU IRGQ (11745062_a_at) / Fold change /veh IRGQ (11745062_a_at) / RFU FAM174B (11720279_a_at) / Fold change /veh FAM174B (11720279_a_at) / RFU TMPRSS4 (11748680_a_at) / Fold change /veh TMPRSS4 (11748680_a_at) / RFU FAM212B (11763350_a_at) / Fold change /veh FAM212B (11763350_a_at) / RFU PLEKHG5 (11743358_a_at) / Fold change /veh PLEKHG5 (11743358_a_at) / RFU ZSCAN30 (11745921_a_at) / Fold change /veh ZSCAN30 (11745921_a_at) / RFU CMKLR1 (11741424_a_at) / Fold change /veh CMKLR1 (11741424_a_at) / RFU LOC101060620 /// MAPK8IP1 (11723275_at) / Fold change /veh LOC101060620 /// MAPK8IP1 (11723275_at) / RFU SPTSSB (11747773_x_at) / Fold change /veh SPTSSB (11747773_x_at) / RFU PRSS12 (11739890_at) / Fold change /veh PRSS12 (11739890_at) / RFU BIN1 (11741810_x_at) / Fold change /veh BIN1 (11741810_x_at) / RFU WNT11 (11732464_a_at) / Fold change /veh WNT11 (11732464_a_at) / RFU C10orf10 (11716521_a_at) / Fold change /veh C10orf10 (11716521_a_at) / RFU C5orf56 (11738089_at) / Fold change /veh C5orf56 (11738089_at) / RFU CYB561 (11721691_x_at) / Fold change /veh CYB561 (11721691_x_at) / RFU ANKRD19P (11752326_a_at) / Fold change /veh ANKRD19P (11752326_a_at) / RFU OR2T12 /// OR2T33 /// OR2T8 (11738714_s_at) / Fold change /veh OR2T12 /// OR2T33 /// OR2T8 (11738714_s_at) / RFU VCAN (11748164_a_at) / Fold change /veh VCAN (11748164_a_at) / RFU JSRP1 (11732532_at) / Fold change /veh JSRP1 (11732532_at) / RFU KRTAP10-11 (11738290_x_at) / Fold change /veh KRTAP10-11 (11738290_x_at) / RFU MYO3A (11730013_a_at) / Fold change /veh MYO3A (11730013_a_at) / RFU EBF3 (11725865_a_at) / Fold change /veh EBF3 (11725865_a_at) / RFU CAMK2N1 (11719241_x_at) / Fold change /veh CAMK2N1 (11719241_x_at) / RFU C5orf56 (11738088_a_at) / Fold change /veh C5orf56 (11738088_a_at) / RFU OLFML3 (11715873_a_at) / Fold change /veh OLFML3 (11715873_a_at) / RFU LOC100653217 /// NTM (11731650_a_at) / Fold change /veh LOC100653217 /// NTM (11731650_a_at) / RFU MAPK11 (11762145_a_at) / Fold change /veh MAPK11 (11762145_a_at) / RFU FIZ1 (11724087_x_at) / Fold change /veh FIZ1 (11724087_x_at) / RFU OASL (11726364_x_at) / Fold change /veh OASL (11726364_x_at) / RFU SOX15 (11748057_x_at) / Fold change /veh SOX15 (11748057_x_at) / RFU CD79A (11719716_a_at) / Fold change /veh CD79A (11719716_a_at) / RFU HIST1H1D (11736915_at) / Fold change /veh HIST1H1D (11736915_at) / RFU CASKIN2 (11723855_a_at) / Fold change /veh CASKIN2 (11723855_a_at) / RFU LOC730098 (11760151_x_at) / Fold change /veh LOC730098 (11760151_x_at) / RFU OR4N2 (11742367_at) / Fold change /veh OR4N2 (11742367_at) / RFU PRRT2 (11749266_a_at) / Fold change /veh PRRT2 (11749266_a_at) / RFU SNX32 (11753110_a_at) / Fold change /veh SNX32 (11753110_a_at) / RFU CDHR5 (11726645_a_at) / Fold change /veh CDHR5 (11726645_a_at) / RFU RCAN1 (11760418_a_at) / Fold change /veh RCAN1 (11760418_a_at) / RFU FAM167A (11723789_a_at) / Fold change /veh FAM167A (11723789_a_at) / RFU FAM26E (11764081_at) / Fold change /veh FAM26E (11764081_at) / RFU ISYNA1 (11749810_s_at) / Fold change /veh ISYNA1 (11749810_s_at) / RFU ACY1 (11761880_at) / Fold change /veh ACY1 (11761880_at) / RFU 11764098_at / Fold change /veh 11764098_at / RFU SAMD14 (11745864_x_at) / Fold change /veh SAMD14 (11745864_x_at) / RFU NPB (11741838_a_at) / Fold change /veh NPB (11741838_a_at) / RFU TMPRSS6 (11731388_a_at) / Fold change /veh TMPRSS6 (11731388_a_at) / RFU KRTAP10-2 (11738614_at) / Fold change /veh KRTAP10-2 (11738614_at) / RFU ARHGAP8 /// PRR5-ARHGAP8 (11727945_x_at) / Fold change /veh ARHGAP8 /// PRR5-ARHGAP8 (11727945_x_at) / RFU KRTAP5-7 /// NADSYN1 (11734609_at) / Fold change /veh KRTAP5-7 /// NADSYN1 (11734609_at) / RFU RASL12 (11751679_a_at) / Fold change /veh RASL12 (11751679_a_at) / RFU CDKN2B (11736163_a_at) / Fold change /veh CDKN2B (11736163_a_at) / RFU PRF1 (11729649_at) / Fold change /veh PRF1 (11729649_at) / RFU, ZNF638 /// ZNF638-IT1 / Fold change vs veh, ZNF638 /// ZNF638-IT1 / RFU, PANK3 / Fold change vs veh, PANK3 / RFU, SH3YL1 / Fold change vs veh, SH3YL1 / RFU, ZEB2 / Fold change vs veh, ZEB2 / RFU, NRIP1 / Fold change vs veh, NRIP1 / RFU, PTTG1IP / Fold change vs veh, PTTG1IP / RFU, CAPN2 / Fold change vs veh, CAPN2 / RFU, MED14 / Fold change vs veh, MED14 / RFU, SNORA58 / Fold change vs veh, SNORA58 / RFU, C1orf63 / Fold change vs veh, C1orf63 / RFU, LRRFIP1 / Fold change vs veh, LRRFIP1 / RFU, NDUFAF7 / Fold change vs veh, NDUFAF7 / RFU, SLC12A2 / Fold change vs veh, SLC12A2 / RFU, IBTK / Fold change vs veh, IBTK / RFU, ESF1 / Fold change vs veh, ESF1 / Fold change vs veh, TMEM50B / RFU, TAOK1 / Fold change vs veh, TAOK1 / RFU, ACBD3 / Fold change vs veh, ACBD3 / RFU, TMA16 / Fold change vs veh, TMA16 / RFU, RWDD3 / Fold change vs veh, RWDD3 / RFU, BCAT1 / Fold change vs veh, BCAT1 / RFU, EDEM3 / Fold change vs veh, EDEM3 / RFU, TMEM33 / Fold change vs veh, TMEM33 / RFU, WDR75 / Fold change vs veh, WDR75 / RFU, AHCTF1 / Fold change vs veh, AHCTF1 / RFU, TFRC / Fold change vs veh, TFRC / RFU, ZDHHC17 / Fold change vs veh, ZDHHC17 / RFU, NOM1 / Fold change vs veh, NOM1 / RFU, ARL8B / Fold change vs veh, ARL8B / RFU, ZBTB11 / Fold change vs veh, ZBTB11 / RFU, TAMM41 / Fold change vs veh, TAMM41 / RFU, KIAA1704 /// LOC100996395 / Fold change vs veh, KIAA1704 /// LOC100996395 / RFU, ING1 / Fold change vs veh, ING1 / RFU, TRMT61B / Fold change vs veh, TRMT61B / RFU, FUBP3 / Fold change vs veh, FUBP3 / RFU, TP53 / Fold change vs veh, TP53 / RFU, TNKS2 / Fold change vs veh, TNKS2 / RFU, ZFP14 / Fold change vs veh, ZFP14 / RFU, ACTR2 / Fold change vs veh, ACTR2 / RFU, PPP3R1 / Fold change vs veh, PPP3R1 / RFU, PIK3R1 / Fold change vs veh, PIK3R1 / RFU, HNRNPA1 / Fold change vs veh, HNRNPA1 / RFU, RNF170 / Fold change vs veh, RNF170 / RFU, ZNF28 / Fold change vs veh, ZNF28 / RFU, RNGTT / Fold change vs veh, RNGTT / RFU, OGT / Fold change vs veh, OGT / RFU, BRD1 / Fold change vs veh, BRD1 / RFU, MARS / Fold change vs veh, MARS / RFU, ZNF655 / Fold change vs veh, ZNF655 / RFU, FAHD1 / Fold change vs veh, FAHD1 / RFU, BDP1 / Fold change vs veh, BDP1 / RFU, LRRCC1 / Fold change vs veh, LRRCC1 / RFU, ARID1A / Fold change vs veh, ARID1A / RFU, ZNF146 / Fold change vs veh, ZNF146 / RFU, ZNF330 / Fold change vs veh, ZNF330 / RFU, GPN3 / Fold change vs veh, GPN3 / RFU, C9orf123 / Fold change vs veh, C9orf123 / RFU, N4BP2L2 / Fold change vs veh, N4BP2L2 / RFU, ARFIP1 / Fold change vs veh, ARFIP1 / RFU, FAM179B / Fold change vs veh, FAM179B / RFU, BCL10 / Fold change vs veh, BCL10 / RFU, UHRF1BP1L / Fold change vs veh, UHRF1BP1L / RFU, BET1 / Fold change vs veh, BET1 / RFU, CNOT2 / Fold change vs veh, CNOT2 / RFU, ZNF268 / Fold change vs veh, ZNF268 / Fold change vs veh, ZNF507 / RFU, DGCR2 / Fold change vs veh, DGCR2 / RFU, WDSUB1 / Fold change vs veh, WDSUB1 / Fold change vs veh, HSP90B1 /// MIR3652 / RFU, ADSS / Fold change vs veh, ADSS / RFU, GK / Fold change vs veh, GK / RFU, ZNF148 / Fold change vs veh, ZNF148 / RFU, TAF9 / Fold change vs veh, TAF9 / RFU, SLC1A5 / Fold change vs veh, SLC1A5 / RFU, SLMO2 / Fold change vs veh, SLMO2 / RFU, ABCC4 / Fold change vs veh, ABCC4 / RFU, LOC101060439 /// RAP1B / Fold change vs veh, LOC101060439 /// RAP1B / RFU, RFX7 / Fold change vs veh, RFX7 / RFU, GTPBP10 / Fold change vs veh, GTPBP10 / RFU, CNEP1R1 / Fold change vs veh, CNEP1R1 / RFU, BIVM-ERCC5 /// ERCC5 / Fold change vs veh, BIVM-ERCC5 /// ERCC5 / RFU, ILF3 / Fold change vs veh, ILF3 / RFU 11762660_at / Fold change /veh 11762660_at / RFU VCAN (11757783_s_at) / Fold change /veh VCAN (11757783_s_at) / RFU DDX43 (11728927_at) / Fold change /veh DDX43 (11728927_at) / RFU KRT8 (11758188_x_at) / Fold change /veh KRT8 (11758188_x_at) / RFU NKD1 (11759106_at) / Fold change /veh NKD1 (11759106_at) / RFU SRD5A1 (11742802_a_at) / Fold change /veh SRD5A1 (11742802_a_at) / RFU TPSAB1 /// TPSB2 (11721975_s_at) / Fold change /veh TPSAB1 /// TPSB2 (11721975_s_at) / RFU GSTM3 (11746129_a_at) / Fold change /veh GSTM3 (11746129_a_at) / RFU IL23R (11737362_x_at) / Fold change /veh IL23R (11737362_x_at) / RFU TMEM51 (11727254_a_at) / Fold change /veh TMEM51 (11727254_a_at) / RFU PIWIL2 (11732686_x_at) / Fold change /veh PIWIL2 (11732686_x_at) / RFU ORM1 (11744905_x_at) / Fold change /veh ORM1 (11744905_x_at) / RFU CCDC152 (11743942_at) / Fold change /veh CCDC152 (11743942_at) / RFU ECM1 (11717891_a_at) / Fold change /veh ECM1 (11717891_a_at) / RFU IL23R (11748794_a_at) / Fold change /veh IL23R (11748794_a_at) / RFU TNFAIP8L3 (11732012_x_at) / Fold change /veh TNFAIP8L3 (11732012_x_at) / RFU MBOAT4 (11741988_at) / Fold change /veh MBOAT4 (11741988_at) / RFU 11764193_at / Fold change /veh 11764193_at / RFU TMEM53 (11763286_at) / Fold change /veh TMEM53 (11763286_at) / RFU MAGEB2 (11727129_at) / Fold change /veh MAGEB2 (11727129_at) / RFU TMEM200A (11744735_a_at) / Fold change /veh TMEM200A (11744735_a_at) / RFU CCDC152 (11751479_a_at) / Fold change /veh CCDC152 (11751479_a_at) / RFU FAM211A (11726209_a_at) / Fold change /veh FAM211A (11726209_a_at) / RFU RGS16 (11746705_a_at) / Fold change /veh RGS16 (11746705_a_at) / RFU VCAN (11755009_s_at) / Fold change /veh VCAN (11755009_s_at) / RFU RHOB (11743442_s_at) / Fold change /veh RHOB (11743442_s_at) / RFU RGS16 (11720943_a_at) / Fold change /veh RGS16 (11720943_a_at) / RFU RGS16 (11720944_at) / Fold change /veh RGS16 (11720944_at) / RFU, VPS4B / Fold change vs veh, VPS4B / RFU, CREB1 / Fold change vs veh, CREB1 / RFU, DNAJC13 / Fold change vs veh, DNAJC13 / RFU, GNAQ / Fold change vs veh, GNAQ / RFU, CDK5R1 / Fold change vs veh, CDK5R1 / RFU, ZRANB3 / Fold change vs veh, ZRANB3 / RFU, CUL4A / Fold change vs veh, CUL4A / RFU, CCNY / Fold change vs veh, CCNY / RFU, UFL1 / Fold change vs veh, UFL1 / RFU, COG3 / Fold change vs veh, COG3 / RFU, DIAPH2 / Fold change vs veh, DIAPH2 / RFU, SKA2 / Fold change vs veh, SKA2 / RFU, AFF3 / Fold change vs veh, AFF3 / RFU, LMF1 / Fold change vs veh, LMF1 / RFU, IPO11 / Fold change vs veh, IPO11 / RFU, DFFB / Fold change vs veh, DFFB / RFU, FOXP1 / Fold change vs veh, FOXP1 / RFU, CARD8 / Fold change vs veh, CARD8 / RFU, STRN3 / Fold change vs veh, STRN3 / RFU, ADK / Fold change vs veh, ADK / RFU, RASSF2 / Fold change vs veh, RASSF2 / RFU, WIPF1 / Fold change vs veh, WIPF1 / RFU, LARP1B / Fold change vs veh, LARP1B / RFU, RASA1 / Fold change vs veh, RASA1 / RFU, RB1 / Fold change vs veh, RB1 / RFU, PPFIA1 / Fold change vs veh, PPFIA1 / RFU, MAT2A / Fold change vs veh, MAT2A / RFU, CCT5 / Fold change vs veh, CCT5 / RFU, WDR92 / Fold change vs veh, WDR92 / RFU, CUX1 / Fold change vs veh, CUX1 / RFU, TTC7A / Fold change vs veh, TTC7A / RFU, TMEM135 / Fold change vs veh, TMEM135 / RFU, DEPTOR / Fold change vs veh, DEPTOR / RFU, CPM / Fold change vs veh, CPM / RFU, DNAJB6 / Fold change vs veh, DNAJB6 / RFU, CACNA2D3 / Fold change vs veh, CACNA2D3 / RFU, DTX4 / Fold change vs veh, DTX4 / RFU, TFCP2 / Fold change vs veh, TFCP2 / RFU, GMCL1 /// GMCL1P1 / Fold change vs veh, GMCL1 /// GMCL1P1 / RFU, AEBP2 / Fold change vs veh, AEBP2 / RFU, SNHG1 /// SNORD22 /// SNORD25 /// SNORD26 /// SNORD27 /// SNORD28 /// SNORD29 /// SNORD31 / Fold change vs veh, SNHG1 /// SNORD22 /// SNORD25 /// SNORD26 /// SNORD27 /// SNORD28 /// SNORD29 /// SNORD31 / Fold change (Aza/veh), C12orf56 (ProbeSet 11735607_a_at) / Fold change (ACY-1035/veh), C12orf56 (ProbeSet 11735607_a_at) / Fold change (Aza/veh), FGFR1OP (ProbeSet 11751329_s_at) / Fold change (ACY-1035/veh), FGFR1OP (ProbeSet 11751329_s_at) / Fold change (Aza/veh), VPS36 (ProbeSet 11739960_a_at) / Fold change (ACY-1035/veh), VPS36 (ProbeSet 11739960_a_at) / RFU SYPL1 (11715823_x_at) / Fold change /veh SYPL1 (11715823_x_at) / RFU IGFBP7 (11715501_s_at) / Fold change /veh IGFBP7 (11715501_s_at) / RFU REEP3 (11722064_at) / Fold change /veh REEP3 (11722064_at) / RFU IGLL1 (11728026_x_at) / Fold change /veh IGLL1 (11728026_x_at): dose or concentration left out as unconfirmed
Conditions: MV-4-11 cells, 48 hours

## Nc1ncn([C@@H]2O[C@H](CO)[C@@H](O)[C@H]2O)c(=O)n1 [azacitidine]
  Fold change /veh KIR2DL2 /// KIR2DL4 /// KIR2DL5A /// KIR2DL5B /// KIR2DS1 /// KIR2DS2 /// KIR2DS3 /// KIR2DS4 /// KIR3DL3 /// KIR3DL3 /// KIR3DS1 (11738374_at): 0.92
